Source: PubChem BioAssay (NCI)
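Method: 48-hour compound exposure of cells in 96-well plates, five concentrations, linear interpolation of endpoints. At the GI50, growth is halved. At the TGI there is no net growth.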

Key:
Test in all cases: NCI tumour cell line growth inhibition, 48 h
HT29 colon = system: HT29 colon
SNB-19 CNS = system: SNB-19 CNS
HL-60(TB) leukemia = system: HL-60(TB) leukemia
HOP-62 NSCLC = system: HOP-62 NSCLC
UO-31 renal = system: UO-31 renal
TK-10 renal = system: TK-10 renal
HCT-15 colon = system: HCT-15 colon
NCI-H522 lung = system: NCI-H522 lung
OVCAR-5 ovarian = system: OVCAR-5 ovarian
NCI/ADR-RES ovarian = system: NCI/ADR-RES ovarian

| Compound | TGI (HT29 colon) | TGI (SNB-19 CNS) | TGI (HL-60(TB) leukemia) | TGI (HOP-62 NSCLC) | TGI (UO-31 renal) | TGI (TK-10 renal) | TGI (HCT-15 colon) | TGI (NCI-H522 lung) | TGI (OVCAR-5 ovarian) | TGI (NCI/ADR-RES ovarian) | GI50 (HT29 colon) | GI50 (SNB-19 CNS) | GI50 (HOP-62 NSCLC) | GI50 (UO-31 renal) | GI50 (HCT-15 colon) | GI50 (NCI-H522 lung) | GI50 (OVCAR-5 ovarian) | GI50 (TK-10 renal) | GI50 (NCI/ADR-RES ovarian) | GI50 (HL-60(TB) leukemia) |
| --- | --- | --- | --- | --- | --- | --- | --- | --- | --- | --- | --- | --- | --- | --- | --- | --- | --- | --- | --- | --- |
| Cc1ccc(NC(=O)C2C(=O)C(=O)N(c3ccc(C)cc3)C2=O)cc1 (configuration not stated) | > 100 µM | > 100 µM | > 100 µM | > 100 µM | > 100 µM | > 100 µM | > 100 µM | > 100 µM | > 100 µM | – | – | – | – | – | – | – | – | – | – | – |
| O=C(O)c1ccc([N+](=O)[O-])c(P(=O)(O)O)c1 | > 100 µM | > 100 µM | > 100 µM | > 100 µM | > 100 µM | > 100 µM | > 100 µM | – | > 100 µM | > 100 µM | – | – | – | – | – | – | – | – | – | – |
| O=[N+]([O-])c1ccc(Oc2cccnc2)c([N+](=O)[O-])c1 | 13.8 µM | > 100 µM | – | 27.9 µM | 16.8 µM | – | > 100 µM | 9.55 µM | 16.9 µM | – | 3.5 µM | 24.3 µM | 5.95 µM | 3.07 µM | 3.75 µM | 3.02 µM | 3.26 µM | – | – | – |
| NC(Cc1cc(Br)c(O)c(Br)c1)C(=O)O (configuration not stated) | > 100 µM | > 100 µM | > 100 µM | > 100 µM | – | > 100 µM | > 100 µM | > 100 µM | > 100 µM | > 100 µM | – | – | – | – | – | – | – | – | – | – |
| S=C1CNC(=S)CN1 | > 100 µM | > 100 µM | > 100 µM | > 100 µM | > 100 µM | > 100 µM | > 100 µM | > 100 µM | > 100 µM | – | – | – | – | – | – | – | – | – | – | – |
| CCCCN(CCCC)c1cc(C(=O)CCCCCN)c2ccccc2n1 | 3.57 µM | 3.12 µM | – | 3.53 µM | 3.68 µM | 3.5 µM | – | 3.52 µM | 3.65 µM | 3.61 µM | 2 µM | 1.65 µM | 1.76 µM | 1.85 µM | – | 1.91 µM | 1.85 µM | 1.94 µM | 1.78 µM | – |
| CCOC(=O)/C(=C/c1cc(OC)ccc1OC)CC(=O)O | > 100 µM | > 100 µM | > 31.6 µM | – | > 100 µM | > 100 µM | > 62.7 µM | > 100 µM | – | – | – | – | – | – | – | – | – | – | – | – |
| C=CCOC1=C2CC[C@H](O)[C@@]2(C)CCC1=O | > 100 µM | > 100 µM | > 100 µM | > 100 µM | > 100 µM | > 100 µM | > 100 µM | > 100 µM | > 100 µM | – | – | – | – | – | – | – | – | – | – | – |
| Nc1ccn(C2OC(CO[P+](=O)OC3C(CO[P+](=O)OC4C(CO[P+](=O)OC5C(CO[P+](=O)OC6C(CO[P+](=O)OC7C(CO[P+](=O)OC8C(CO[P+](=O)OC9C(CO[P+](=O)OC%10C(CO[P+](=O)OC%11C(CO)OC(n%12ccc(N)nc%12=O)C%11(F)F)OC(n%11ccc(N)nc%11=O)C%10(F)F)OC(n%10ccc(N)nc%10=O)C9(F)F)OC(n9ccc(N)nc9=O)C8(F)F)OC(n8ccc(N)nc8=O)C7(F)F)OC(n7ccc(N)nc7=O)C6(F)F)OC(n6ccc(N)nc6=O)C5(F)F)OC(n5ccc(N)nc5=O)C4(F)F)OC(n4ccc(N)nc4=O)C3(F)F)C(O)C2(F)F)c(=O)n1 (configuration not stated) | > 100 µM | > 100 µM | 0.18 µM | – | – | > 100 µM | – | > 100 µM | > 100 µM | > 100 µM | 1.32 µM | – | 0.0175 µM | – | 0.704 µM | 0.224 µM | 9.59 µM | > 100 µM | – | – |
| COc1ccc(S(=O)(=O)Nc2cc(/C=C\c3cc(OC)c(OC)c(OC)c3)cc(OC)c2OC)cc1OC | > 100 µM | > 100 µM | > 100 µM | > 100 µM | > 100 µM | > 100 µM | > 100 µM | > 100 µM | > 100 µM | – | 0.485 µM | 1.11 µM | 17.6 µM | 1.59 µM | 0.671 µM | 0.369 µM | 6.57 µM | 10.3 µM | – | 0.37 µM |
| CCCCCCCCCCCCCCCCc1c(C(=O)OC)[nH]c(=S)[nH]c1=O | > 50 µM | > 50 µM | > 50 µM | > 50 µM | > 50 µM | > 50 µM | > 50 µM | > 50 µM | > 50 µM | – | – | – | – | – | – | – | – | – | – | – |
| C=CC[Se]C(=O)c1ccccc1OC(C)=O | > 100 µM | 1.66 µM | 6.54 µM | – | 2.81 µM | – | 5.09 µM | 4.62 µM | – | 4.4 µM | 2.65 µM | 0.493 µM | – | 1.48 µM | 2.12 µM | 1.93 µM | – | – | 1.6 µM | 2.4 µM |
| NC(=O)c1ncn(C2OC(CO)C(O)C2O)n1 (configuration not stated) | > 100 µM | – | > 100 µM | > 100 µM | > 100 µM | > 100 µM | > 100 µM | > 100 µM | > 100 µM | > 100 µM | 14.2 µM | – | > 100 µM | > 100 µM | 38.4 µM | > 100 µM | > 100 µM | > 100 µM | 54.6 µM | > 100 µM |
| Cc1cc(=O)[nH]c(CNC(=O)c2cccc3ccccc23)n1 | > 100 µM | > 100 µM | > 100 µM | > 100 µM | > 100 µM | > 100 µM | > 100 µM | > 100 µM | – | – | – | – | – | – | – | – | – | – | – | – |
| [Ce+3].[Cl-].[O-]/N=C(\c1ccccc1)c1ccccn1.[O-]/N=C(\c1ccccc1)c1ccccn1.[O-]/N=C(\c1ccccc1)c1ccccn1 | > 100 µM | > 100 µM | 60.2 µM | > 100 µM | 82.9 µM | > 100 µM | > 100 µM | 73.6 µM | > 100 µM | – | 72 µM | 42.6 µM | 30.3 µM | 28.1 µM | 38.1 µM | 21.9 µM | > 100 µM | 51.4 µM | – | 18.7 µM |
| c1ccc2c(c1)nnn1c3cnccc3nc21 | 80.3 µM | > 100 µM | 33 µM | > 100 µM | > 100 µM | 94.7 µM | 80 µM | 28.4 µM | > 100 µM | – | – | – | – | – | – | – | – | – | – | – |
| Nc1ccccc1S(=O)c1ccccc1 (configuration not stated) | > 1 µM | > 100 µM | > 100 µM | > 100 µM | > 100 µM | > 100 µM | > 100 µM | > 100 µM | > 100 µM | – | – | – | – | – | – | – | – | – | – | – |
| OCC1OC(n2ccc3cnccc32)CC1O (configuration not stated) | > 100 µM | > 100 µM | > 100 µM | > 100 µM | > 100 µM | > 100 µM | > 100 µM | > 100 µM | > 100 µM | – | – | – | – | – | – | – | – | – | – | – |
